Source: the OPERA property sets (Mansouri et al. 2018)

conditions: not given

Compound | melting point [°C] | boiling point [°C] | ready biodegradability | log10 Koc (L/kg) | log10 vapour pressure (mmHg) | log10 Koa | log10 Henry constant (atm·m³/mol) | log10 biodegradation half-life (days)
Cc1ccc2cc3c(ccc4ccccc43)cc2c1 | 152 | – | – | – | – | – | – | –
CCCCCCC(O)CCCC (stereo unspecified) | -3.5 | 229 | – | – | – | – | – | –
CN(C)c1cccc(N)c1 | – | 270 | – | – | – | – | – | –
O=C(O)c1ccc(Cl)cc1Cl | 164 | – | not readily biodegradable | – | – | – | – | –
CCOC(=O)C(Br)Br | – | 194 | – | – | – | – | – | –
CC[Si](O)(CC)CC | – | 154 | – | – | – | – | – | –
COc1cc(Cl)c(OC)cc1Cl | 134 | 268 | – | 3.1 | -2.52 | – | – | –
C=CCCCCCCCCCCCCCCCCC | 23 | 329 | – | – | -4.42 | – | – | –
O=C(O)Cc1cc(I)c(Oc2ccc(O)c(I)c2)c(I)c1 | 182 | – | – | – | – | – | – | –
FC(F)(F)C(F)(F)N(C(F)(F)C(F)(F)F)C(F)(F)C(F)(F)F | -110 | 70.3 | – | – | – | – | – | –
FC(F)(F)c1ccccc1 | -29.1 | 102 | not readily biodegradable | – | 1.59 | – | – | –
COC(=O)C(C)C(=O)OC | – | 174 | – | – | – | – | – | –
CCCCCCCCOC(C)=O | -38.5 | 210 | – | – | – | – | – | –
NS(=O)(=O)c1cc2c(s1)SCCC2=O | 222 | – | – | – | – | – | – | –
Cc1cccc(C)c2cc(C(C)C)cc1-2 | 32.3 | – | – | – | – | – | – | –
CCCCOC(=O)COc1ccc(Cl)cc1Cl | – | – | – | – | -4.21 | – | – | –
CCCCOB(OCCCC)OCCCC | – | 234 | – | – | -0.279 | – | – | –
C=C(CCl)CCl | -14 | 138 | – | – | – | – | – | –
Sc1cccc2ccccc12 | – | 285 | not readily biodegradable | – | – | – | – | –
CC(C)(C)CCO | -60 | 143 | – | – | 0.389 | – | – | –
CCCNC(C)C(=O)Nc1ccccc1C (stereo unspecified) | 37.5 | – | – | – | – | – | – | –
Cn1cnc2c1c(=O)[nH]c(=O)n2C | 357 | – | – | – | – | – | – | –
O=S(=O)(Oc1ccc(Cl)cc1Cl)c1ccccc1 | 45.5 | – | – | – | – | – | – | –
CC(=O)C1CCC1 | – | 138 | – | – | – | – | – | –
CC(C)(C)ON=O | – | 63 | – | – | – | – | – | –
CCCc1cccc(C)c1 | -82.5 | 182 | – | – | 0.425 | – | – | –

Compound | melting point [°C] | boiling point [°C] | ready biodegradability | log10 Koc (L/kg) | log10 vapour pressure (mmHg) | log10 Koa | log10 Henry constant (atm·m³/mol) | log10 biodegradation half-life (days)
Nc1ccc2c(O)cc(S(=O)(=O)O)cc2c1 | – | – | not readily biodegradable | – | – | – | – | –
O=[N+]([O-])c1cc[n+]([O-])cc1 | 160 | – | – | – | – | – | – | –
CC(=O)Oc1ccc(C2(c3ccc(OC(C)=O)cc3)C(=O)Nc3ccccc32)cc1 | 242 | – | – | – | – | – | – | –
Clc1cc(-c2ccccc2)c(Cl)c(Cl)c1Cl | – | – | – | – | -4.43 | 8.74 | – | –
Clc1ccc(Cl)c(Br)c1 | 35 | 226 | – | – | – | – | – | –
CCN(CC)C(=O)c1ccccc1C(=O)N(CC)CC | 36 | – | – | – | – | – | – | –
CCCCCCl | -99 | 108 | – | – | 1.52 | – | -1.62 | –
CCCCCCCCCCCC[C@H](C)O | 34 | 284 | – | – | – | – | – | –
C=C(C)C(=O)OCC(F)(F)C(F)F | – | 124 | – | – | – | – | – | –
CCCCCCCCCCCCCCCCCCS | 30 | 360 | not readily biodegradable | – | -6.4 | – | – | –
C[C@H]1CC[C@@H]2[C@H](C1)C2(C)C | – | 169 | – | – | – | – | – | –
N#Cc1cccc(C#N)c1 | 162 | – | not readily biodegradable | – | – | – | – | –
CC(C)(C)c1ccc(CSc2cnn(C(C)(C)C)c(=O)c2Cl)cc1 | 112 | – | – | – | -5.93 | – | – | –
CNC[C@H](O)c1ccc(O)c(O)c1 | 212 | – | – | – | – | – | – | –
CCOC(=O)c1c(N)sc2c1CCN(Cc1ccccc1)C2 | 112 | – | – | – | – | – | – | –
CCCCCC(=NO)C(C)=O | 59 | – | – | – | – | – | – | –
CCCC(C)(C)CCC | – | 135 | – | – | – | – | – | –
CCc1ccccc1Nc1ccccc1CC | 29 | – | – | – | – | – | – | –
N#Cc1c(F)c(F)c(C#N)c(F)c1F | 198 | – | – | – | – | – | – | –
CC(C)COC(=O)C(=O)OCC(C)C | – | 229 | – | – | – | – | – | –
CCN(CC)C(=O)Cl | -32 | 186 | – | – | – | – | – | –
O=C1CCCC(=O)C1 | 106 | – | – | – | – | – | – | –
CC(=O)Oc1ccc(-c2ccccc2)cc1 | 89 | – | – | – | – | – | – | –
C=C(C)C1CCC(C)(O)CC1 (stereo unspecified) | 32.5 | 210 | – | – | – | – | – | –
CC1C=CCCC1 (stereo unspecified) | – | 103 | – | – | 1.54 | – | – | –
CCCCCC(C)(C)CC | – | 161 | – | – | – | – | – | –

Compound | melting point [°C] | boiling point [°C] | ready biodegradability | log10 Koc (L/kg) | log10 vapour pressure (mmHg) | log10 Koa | log10 Henry constant (atm·m³/mol) | log10 biodegradation half-life (days)
NS(=O)(=O)c1ccc(S(=O)(=O)CCCO)cc1 | 150 | – | – | – | – | – | – | –
ClCC(Cl)=C(Cl)Cl | – | 167 | – | – | 0.428 | – | – | –
CCOc1ccc(N=Nc2ccc(OCC)cc2)cc1 | 162 | – | – | – | – | – | – | –
OCCC(F)(F)C(F)(F)C(F)(F)C(F)(F)C(F)(F)C(F)(F)C(F)(F)C(F)(F)F | – | – | not readily biodegradable | – | – | – | – | –
COc1c(OC)c(OC(C)=O)c2cc(Cl)ccc2c1OC(C)=O | 91.5 | – | – | – | – | – | – | –
CCCNCC | – | 81 | – | – | – | – | – | –
Cc1cc(Cl)ccc1O[C@H](C)C(=O)O | – | – | – | – | -5.58 | – | – | –
[C-]#[N+]CCCC | – | 120 | – | – | – | – | – | –
CC1(C)CCCC(=O)C1 | – | 180 | – | – | – | – | – | –
CCC1(CC2(c3cccc(Cl)c3)CO2)C(=O)c2ccccc2C1=O (stereo unspecified) | 61 | – | – | – | -7.7 | – | – | –
Cc1cc(Cl)[nH]n1 | 118 | 258 | – | – | – | – | – | –
CCCCN(CC)c1c([N+](=O)[O-])cc(C(F)(F)F)cc1[N+](=O)[O-] | 66 | 370 | not readily biodegradable | 4.03 | -4.19 | – | – | –
O=C(C=CC(=O)Oc1ccccc1)Oc1ccccc1 | 73 | – | – | – | – | – | – | –
CC(C)(C)C(=O)OCC(=O)[C@@]1(O)CC[C@H]2[C@@H]3CCC4=CC(=O)C=C[C@]4(C)[C@H]3[C@@H](O)C[C@@]21C | 233 | – | – | – | – | – | – | –
CCOC(=O)COc1cc(Cl)c(Cl)cc1Cl | 64 | – | – | – | – | – | – | –
CCC1(c2ccccc2)C(=O)NC(=O)N(C)C1=O (stereo unspecified) | 176 | – | – | – | – | – | – | –
FC(F)(F)C(F)(F)C(F)(F)C(F)(F)C(F)(F)F | -100 | 29.2 | – | – | – | – | – | –
CCCCC(C)(C)CCC | – | 158 | – | – | – | – | – | –
Ic1ccc2c(c1)Oc1ccccc1O2 | 95 | – | – | – | -4.5 | – | – | –
c1cnoc1 | – | 95 | – | – | 1.66 | – | – | –
CCCCCCCCCCCCCCBr | 5.6 | 307 | – | – | -3.35 | – | – | –
N#CCCCCCCCCCCC(=O)O | – | – | readily biodegradable | – | – | – | – | –
Cc1nc(N(C)C)nc(OC(=O)N(C)C)c1C | 90.5 | – | – | 1.9 | -5.14 | – | – | –
CCOC(=O)C#Cc1ccccc1 | – | 265 | – | – | – | – | – | –
O=C(O)[C@H](O)[C@@H](O)C(=O)O | – | – | readily biodegradable | – | – | – | – | –
O=[N+]([O-])c1cc(Br)ccc1O | 92 | – | – | – | – | – | – | –

Compound | melting point [°C] | boiling point [°C] | ready biodegradability | log10 Koc (L/kg) | log10 vapour pressure (mmHg) | log10 Koa | log10 Henry constant (atm·m³/mol) | log10 biodegradation half-life (days)
FC(F)(F)C(F)(F)C(F)(F)C(F)(F)C(F)(F)C(F)(F)C(F)(F)Br | – | 118 | – | – | – | – | – | –
C=C(C)C#N | -35.8 | 90.3 | readily biodegradable | – | 1.85 | – | – | –
CC(C)=CCC[C@@H](C)[C@H]1CC[C@@]2(C)C3=C(CC[C@]12C)[C@@]1(C)CC[C@H](O)C(C)(C)[C@@H]1CC3 | 140 | – | – | – | – | – | – | –
Nc1cc(Cl)c(O)c(Cl)c1 | 168 | – | – | – | – | – | – | –
CC1CCCCC1C (stereo unspecified) | – | 126 | – | – | 1.2 | – | – | 1.26
C[C@H](CCC(=O)O)[C@H]1CC[C@H]2[C@@H]3CC[C@@H]4C[C@H](O)CC[C@]4(C)[C@H]3C[C@H](O)[C@]12C | 177 | – | – | – | – | – | – | –
COc1c(Cl)c(Cl)c(Cl)c(Cl)c1OC | 90 | – | – | – | – | – | – | –
NC(=O)CF | 108 | – | – | – | – | – | – | –
CC(C)(C)c1ccc(C(C)(C)C)o1 | – | 210 | – | – | – | – | – | –
COC(=O)c1cccc(C(=O)OC)c1 | 67.5 | 282 | readily biodegradable | – | – | – | – | –
O=C(O)c1ccc2ccccc2n1 | 156 | – | readily biodegradable | – | – | – | – | –
CCCCCCCC=O | -23 | 171 | – | – | 0.0719 | 5.36 | -3.29 | –
CCCCCCCCCCCCC/C=C/[C@@H](O)[C@@H](N)CO | 67 | – | – | – | – | – | – | –
CCCCCCCC(=O)NO | 78.8 | – | – | – | – | – | – | –
Oc1ccc(-c2ccc(O)cc2)cc1 | 283 | – | not readily biodegradable | – | – | – | – | –
CCCCCCCC(=O)c1ccccc1 | 22.8 | 285 | – | – | – | – | – | –
CC[C@H](Br)C(=O)O | -4 | – | – | – | – | – | – | –
O=C1OC(c2cc(Br)c(O)c(Br)c2)(c2cc(Br)c(O)c(Br)c2)c2ccccc21 | 296 | – | – | – | – | – | – | –
C=C(Br)Br | – | 92 | – | – | – | – | – | –
Nc1ccc(Cl)cc1C(=O)c1ccccc1 | 99 | – | – | – | – | – | – | –
CCCCOC(=O)CCC(=O)OCCCC | -29.2 | 274 | – | – | – | – | – | –
C=CCC(=O)OCC | – | 119 | – | – | – | – | – | –
Oc1cc(Cl)cc(Cl)c1Cl | 62 | – | – | 3.61 | -1.66 | – | – | –

same assay, conditions: fish

Compound | log10 BCF | log10 biotransformation half-life (days)
FC(F)(F)c1ccccc1 | 1.65 | -0.48
Nc1ccc2c(O)cc(S(=O)(=O)O)cc2c1 | 0.38 | –
N#Cc1cccc(C#N)c1 | 0.75 | -0.62
Clc1cc(-c2c(Cl)c(Cl)c(Cl)c(Cl)c2Cl)cc(Cl)c1Cl | – | 2.65
